Molecules are shown by their SMILES.

The test addresses T1, ΔF508-CFTR (Homo sapiens, UniProt P13569, DEL508-508).
T1 construct: expressed in transfected cells
The experiment in a line: Membrane potential optical assay for ΔF508-CFTR potentiation. The test is classed as cell-based. As to conditions: NIH 3T3 cells. The source says: The assay utilizes fluorescent voltage sensing dyes to measure changes in membrane potential using a fluorescent plate reader (e.g., FLIPR III, Molecular Devices, Inc.) as a readout for increase in functional ΔF508-CFTR in NIH 3T3 cells. The driving force for the response is the creation of a chloride ion gradient in conjunction with channel activation by a single liquid addition step after the cells have previously been treated with compounds and subsequently loaded with a voltage sensing dye. To identify potentiators of ΔF508-CFTR, a double-addition HTS assay format was developed. This HTS assay utilizes fluorescent voltage sensing dyes to measure changes in membrane potential on the FLIPR III as a measurement for increase in gating (conductance) of ΔF508 CFTR in temperature-corrected ΔF508 CFTR NIH 3T3 cells. The driving force for the response is a Cl^− ion gradient in conjunction with channel activation with forskolin in a single liquid addition step using a fluorescent plate reader such as FLIPR III after the cells have previously been treated with potentiator compounds (or DMSO vehicle control) and subsequently loaded with a redistribution dye. Bath Solution #1: (in mM) NaCl 160, KCl 4.5, CaCl2 2, MgCl2 1, HEPES 10, pH 7.4 with NaOH. Chloride-free bath solution: Chloride salts in Bath Solution #1 (above) are substituted with gluconate salts. […]

T1 sequence (P13569 with tags, fused parts or gaps DEL508-508): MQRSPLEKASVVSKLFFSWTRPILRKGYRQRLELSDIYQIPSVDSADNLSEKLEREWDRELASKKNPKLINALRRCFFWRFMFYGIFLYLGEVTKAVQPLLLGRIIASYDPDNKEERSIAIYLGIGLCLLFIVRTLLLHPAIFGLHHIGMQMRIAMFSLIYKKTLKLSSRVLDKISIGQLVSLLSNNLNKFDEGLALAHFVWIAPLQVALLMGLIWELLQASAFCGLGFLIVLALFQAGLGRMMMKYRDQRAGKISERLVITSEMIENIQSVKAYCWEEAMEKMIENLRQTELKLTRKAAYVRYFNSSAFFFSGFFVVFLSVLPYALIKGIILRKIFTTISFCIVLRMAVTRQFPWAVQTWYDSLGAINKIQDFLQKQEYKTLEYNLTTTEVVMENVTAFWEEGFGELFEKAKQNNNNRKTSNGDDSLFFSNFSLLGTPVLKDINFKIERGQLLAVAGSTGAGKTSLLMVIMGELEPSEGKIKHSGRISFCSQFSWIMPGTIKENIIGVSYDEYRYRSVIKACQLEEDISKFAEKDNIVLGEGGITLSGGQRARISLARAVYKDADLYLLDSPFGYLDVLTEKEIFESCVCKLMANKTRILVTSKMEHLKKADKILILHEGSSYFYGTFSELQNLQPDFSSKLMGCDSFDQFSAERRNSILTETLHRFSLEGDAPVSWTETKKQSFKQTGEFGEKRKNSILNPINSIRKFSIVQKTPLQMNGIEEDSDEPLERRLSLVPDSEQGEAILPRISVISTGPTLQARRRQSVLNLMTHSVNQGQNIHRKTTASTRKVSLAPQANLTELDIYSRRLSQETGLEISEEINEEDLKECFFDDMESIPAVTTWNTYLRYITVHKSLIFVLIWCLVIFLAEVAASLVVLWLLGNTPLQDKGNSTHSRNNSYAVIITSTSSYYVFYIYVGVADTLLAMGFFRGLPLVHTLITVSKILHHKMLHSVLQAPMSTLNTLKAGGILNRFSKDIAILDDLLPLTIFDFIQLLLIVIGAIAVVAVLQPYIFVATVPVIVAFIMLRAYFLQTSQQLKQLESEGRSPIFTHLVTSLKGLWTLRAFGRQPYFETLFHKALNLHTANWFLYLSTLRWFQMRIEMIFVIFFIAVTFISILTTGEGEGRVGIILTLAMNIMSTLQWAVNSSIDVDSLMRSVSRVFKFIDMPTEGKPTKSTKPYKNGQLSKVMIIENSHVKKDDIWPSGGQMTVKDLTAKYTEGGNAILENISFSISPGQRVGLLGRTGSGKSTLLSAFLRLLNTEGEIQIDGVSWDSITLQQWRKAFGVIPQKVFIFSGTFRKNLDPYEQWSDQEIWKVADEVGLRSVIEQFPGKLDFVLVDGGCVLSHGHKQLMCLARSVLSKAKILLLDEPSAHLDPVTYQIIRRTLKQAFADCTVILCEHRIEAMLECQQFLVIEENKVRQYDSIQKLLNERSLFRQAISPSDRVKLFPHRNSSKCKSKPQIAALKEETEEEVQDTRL

Turning to `CC(C)(C)c1cc(C(C)(C)C)c(NC(=O)c2c[nH]c3ccccc3c2=O)cc1O` [Compound 1, N-[2,4-bis(1,1-dimethylethyl)-5-hydroxyphenyl]-1,4-dihydro-4-oxoquinoline-3-carboxamide], the EC50 – broadly, the concentration at which the effect is half-maximal – was less than 10 µM.

Source of the values: US20140336219A2, “Pharmaceutical Compositions and Administrations Thereof” (Vertex Pharmaceuticals Incorporated, priority 2011, published 2014).
